Experimental data: patent publication US20240270751A1, “Pyrazolopyridinone Compounds” (BeiGene Ltd., priority 2021, published 2024)
Read-outs that look alike come from different tables or passages of the source.

Columns and labels:
DGKζ = DGKζ (Homo sapiens (Human), UniProt Q13574); assay: Biochemical DGK IC50 assay, DGKζ ADP-Glo assay; conditions: 0.5 nM enzyme, 140 μM ATP, 80 μM DAG
Outline: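 ADP formation measured by ADP-Glo luminescence, with test compounds at final 1.55–10000 nM or 23.3–150000 nM. Enzyme: purified full-length human DGKζ from Sf9 insect cells; substrate: DAG/PS micelles in 25 mM HEPES pH 7.0, 0.5 mM EDTA, octyl glucoside.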

DGKα = DGKα (Homo sapiens (Human), UniProt P23743); assay: Biochemical DGK IC50 assay, DGKα ADP-Glo assay; conditions: 7.5 nM enzyme, 140 μM ATP, 80 μM DAG
Outline: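 Compounds at final 1.55˜10000 nM or 23.3˜150000 nM were tested against full-length DGKα. Substrate was lipid micelles of DAG and PS resuspended in 25 mM HEPES pH 7.0 with 0.5 mM EDTA and 160 mM octyl β-D-glucopyranoside. ADP formed was detected by ADP-Glo.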

[1] = read-out: DGKζ ADP-Glo assay IC50

Sequence of DGKζ (Q13574 other isoform, or with tags, fused parts or gaps): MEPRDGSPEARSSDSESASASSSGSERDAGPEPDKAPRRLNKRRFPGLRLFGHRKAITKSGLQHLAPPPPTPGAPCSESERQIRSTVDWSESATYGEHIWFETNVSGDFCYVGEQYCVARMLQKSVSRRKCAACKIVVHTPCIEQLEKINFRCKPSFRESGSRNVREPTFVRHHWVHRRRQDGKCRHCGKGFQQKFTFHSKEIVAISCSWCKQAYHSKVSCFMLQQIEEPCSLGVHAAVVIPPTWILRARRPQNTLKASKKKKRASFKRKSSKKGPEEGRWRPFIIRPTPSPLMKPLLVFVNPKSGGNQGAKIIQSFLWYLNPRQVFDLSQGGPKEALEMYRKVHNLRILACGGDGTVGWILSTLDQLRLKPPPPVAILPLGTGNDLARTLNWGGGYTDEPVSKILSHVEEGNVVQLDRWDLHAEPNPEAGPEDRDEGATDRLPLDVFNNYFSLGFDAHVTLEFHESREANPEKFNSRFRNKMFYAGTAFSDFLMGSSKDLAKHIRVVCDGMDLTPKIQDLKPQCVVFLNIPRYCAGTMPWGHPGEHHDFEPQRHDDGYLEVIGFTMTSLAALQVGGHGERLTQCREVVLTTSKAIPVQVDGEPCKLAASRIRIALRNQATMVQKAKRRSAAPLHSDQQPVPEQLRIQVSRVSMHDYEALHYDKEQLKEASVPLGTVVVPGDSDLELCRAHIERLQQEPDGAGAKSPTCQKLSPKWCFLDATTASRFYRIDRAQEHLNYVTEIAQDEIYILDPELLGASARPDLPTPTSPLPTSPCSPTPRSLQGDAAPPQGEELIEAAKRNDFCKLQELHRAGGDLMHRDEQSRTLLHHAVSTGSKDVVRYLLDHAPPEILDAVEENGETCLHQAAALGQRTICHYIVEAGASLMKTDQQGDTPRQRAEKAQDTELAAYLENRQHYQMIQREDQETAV
Sequence of DGKα (P23743 whole entry): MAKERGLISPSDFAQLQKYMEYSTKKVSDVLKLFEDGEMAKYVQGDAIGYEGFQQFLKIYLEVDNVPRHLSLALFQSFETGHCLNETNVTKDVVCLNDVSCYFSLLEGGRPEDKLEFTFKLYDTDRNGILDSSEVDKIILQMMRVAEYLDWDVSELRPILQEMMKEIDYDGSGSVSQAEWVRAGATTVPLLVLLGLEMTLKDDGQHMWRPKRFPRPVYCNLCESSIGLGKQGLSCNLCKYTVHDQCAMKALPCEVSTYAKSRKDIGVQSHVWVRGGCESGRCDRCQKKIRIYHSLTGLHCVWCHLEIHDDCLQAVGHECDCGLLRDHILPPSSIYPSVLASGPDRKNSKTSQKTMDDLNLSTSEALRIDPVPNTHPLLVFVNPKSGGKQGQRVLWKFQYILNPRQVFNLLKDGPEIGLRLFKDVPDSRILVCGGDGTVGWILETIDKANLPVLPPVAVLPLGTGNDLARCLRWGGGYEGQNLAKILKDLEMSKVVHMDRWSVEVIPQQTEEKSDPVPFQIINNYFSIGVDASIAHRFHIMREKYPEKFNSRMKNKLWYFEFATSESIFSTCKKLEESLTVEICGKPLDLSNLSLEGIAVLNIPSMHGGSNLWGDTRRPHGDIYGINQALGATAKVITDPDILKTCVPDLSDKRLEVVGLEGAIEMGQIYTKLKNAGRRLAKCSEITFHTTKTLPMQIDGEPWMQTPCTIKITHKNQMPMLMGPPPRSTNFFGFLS

## CC[C@H]1CN(C(C)c2cc(C)c(C)cn2)[C@H](CC)CN1c1cc(=O)n(C)c2cn(CC#N)nc12 (stereo partly drawn) [Compound A385]
DGKζ; [1]
  IC50: 498 nM
DGKα
  IC50: 0.481 µM

## CC[C@H]1CN(C(C)c2ncc(Cl)n2CC)[C@H](CC)CN1c1cc(=O)n(C)c2cn(CC#N)nc12 (single isomer, unassigned) [Compound A187a]
DGKζ; [1]
  IC50: 5920 nM
DGKα
  IC50: 5.74 µM

## Cc1ccc(C(c2ccc(C)cc2)N2C[C@H](C)N(c3cc(=O)n(C)c4cn(CC#N)nc34)C[C@H]2C)cc1 [Compound A333]
DGKζ; [1]
  IC50: 210 nM
DGKα
  IC50: 10.6 µM

## [2H]C([2H])([2H])c1cnc2ccc(C(C)N3C[C@H](C)N(c4cc(=O)n(C)c5cn(CC#N)nc45)C[C@H]3C)cc2n1 (single isomer, unassigned) [Compound A313a]
DGKζ; [1]
  IC50: 8290 nM
DGKα
  IC50: 116 µM

## CC[C@H]1CN(C(C)c2ccccc2)[C@H](CC)CN1c1cc(=O)n(C)c2cn(CC#N)nc12 (stereo partly drawn) [Compound A89]
DGKζ; [1]
  IC50: 296 nM
DGKα
  IC50: 0.0043 µM

## CC(c1ccc(F)cc1CC#N)N1C[C@H](C)N(c2cc(=O)n(C)c3cn(CC#N)nc23)C[C@H]1C (single isomer, unassigned) [Compound A287a]
DGKζ; [1]
  IC50: 9680 nM
DGKα
  IC50: > 10 µM

## CC[C@@H]1CN(c2nc(=O)[nH]c3cn(CC#N)nc23)[C@@H](C)CN1C(C)c1ccc2nccnc2c1 (single isomer, unassigned) [Compound A183b]
DGKζ; [1]
  IC50: 2080 nM
DGKα
  IC50: > 10 µM

## COCc1cc(F)ccc1C(C)N1C[C@H](C)N(c2cc(=O)n(C)c3cn(CC#N)nc23)C[C@H]1C (single isomer, unassigned) [Compound A29b]
DGKζ; [1]
  IC50: 57 nM
DGKα
  IC50: 4.06 µM

## CC[C@H]1CN(C(C)c2ccc(F)cc2Cl)[C@H](CC)CN1c1cc(=O)n(C)c2cn(CC#N)nc12 (stereo partly drawn) [Compound A116]
DGKζ; [1]
  IC50: 146 nM
DGKα
  IC50: 5.76 µM

## CC[C@H]1CN(C(C)c2ccn3ncnc3c2)[C@H](CC)CN1c1cc(=O)n(C)c2cn(CC#N)nc12 (stereo partly drawn) [Compound A49]
DGKζ; [1]
  IC50: 200 nM
DGKα
  IC50: 0.13 µM

## CC[C@H]1CN(C(C)c2ccc(C(F)F)cc2)[C@H](CC)CN1c1cc(=O)n(C)c2cn(CC#N)nc12 (stereo partly drawn) [Compound A128]
DGKζ; [1]
  IC50: 112 nM
DGKα
  IC50: 0.031 µM

## CC(c1ccc2nccnc2c1)N1C[C@H](C)N(c2cc(=O)n(C)c3cn(CCO)nc23)C[C@H]1C (stereo partly drawn) [Compound A9]
DGKζ; [1]
  IC50: 30000 nM
DGKα
  IC50: 27 µM

## CC[C@H]1CN(C(c2ccc(F)cc2)c2ccc(F)cc2OC)[C@H](CC)CN1c1cc(=O)n(C)c2cn(CC#N)nc12 (stereo partly drawn) [Compound A53]
DGKζ; [1]
  IC50: 7.8 nM
DGKα
  IC50: 1.2 µM

## CC[C@H]1CN(C(C)c2ccc(F)cc2C(F)(F)F)[C@H](CC)CN1c1cc(=O)n(C)c2c[nH]nc12 (single isomer, unassigned) [Compound A275b]
DGKζ; [1]
  IC50: 4390 nM
DGKα
  IC50: > 10 µM

## CC[C@H]1CN(C(C)c2cnc(OC(C)C)cc2F)[C@H](CC)CN1c1cc(=O)n(C)c2cn(CC#N)nc12 (stereo partly drawn) [Compound A358]
DGKζ; [1]
  IC50: 373 nM
DGKα
  IC50: 5.83 µM

## CC[C@H]1CN(C(C)c2ccc(F)cc2C(C)O)[C@H](CC)CN1c1cc(=O)n(C)c2cn(CC#N)nc12 (stereo partly drawn) [Compound A188]
DGKζ; [1]
  IC50: 786 nM
DGKα
  IC50: > 10 µM

## Cc1ccc2ccc(C(C)N3C[C@H](C)N(c4cc(=O)n(C)c5cn(CC#N)nc45)C[C@H]3C)cc2n1 (stereo partly drawn) [Compound A306]
DGKζ; [1]
  IC50: 495 nM
DGKα
  IC50: 18.2 µM

## CC[C@H]1CN(C(C)c2nc3ccccc3n2C(C)C)[C@H](CC)CN1c1cc(=O)n(C)c2cn(CC#N)nc12 (stereo partly drawn) [Compound A193]
DGKζ; [1]
  IC50: 5730 nM
DGKα
  IC50: > 10 µM

## CC[C@H]1CN(C(C)c2ccc(C3CC3)nc2)[C@H](CC)CN1c1cc(=O)n(C)c2cn(CC#N)nc12 (stereo partly drawn) [Compound A350, 2-(7-((2S,5R)-4-(1-(6-cyclopropylpyridin-3-yl)ethyl)-2,5-diethylpiperazin-1-yl)-4-methyl-5-oxo-4,5-dihydro-2H-pyrazolo[4,3-b]pyridin-2-yl)acetonitrile]
DGKζ; [1]
  IC50: 249 nM
DGKα
  IC50: 0.945 µM

## CC[C@H]1CN(C(C)c2ccc(OC3CCOCC3)cc2)[C@H](CC)CN1c1cc(=O)n(C)c2cn(CC#N)nc12 (stereo partly drawn) [Compound A380]
DGKζ; [1]
  IC50: 667 nM
DGKα
  IC50: 0.161 µM

## CC(c1ccc2nccnc2c1)N1C[C@H](C)N(c2nc(=O)n(C)c3cn(CC#N)nc23)C[C@H]1C (single isomer, unassigned) [Compound A220, 2-(7-((2S,5R)-2,5-dimethyl-4-((S)-1-(quinoxalin-6-yl)ethyl)piperazin-1-yl)-4-methyl-5-oxo-4,5-dihydro-2H-pyrazolo[4,3-d]pyrimidin-2-yl)acetonitrile, or 2-(7-((2S,5R)-2,5-dimethyl-4-((R)-1-(quinoxalin-6-yl)ethyl)piperazin-1-yl)-4-methyl-5-oxo-4,5-dihydro-2H-pyrazolo[4,3-d]pyrimidin-2-yl)acetonitrile]
DGKζ; [1]
  IC50: 67 nM
DGKα
  IC50: 8.69 µM

## [2H]c1nc2ccc(C(C)N3C[C@H](C)N(c4cc(=O)n(C)c5cn(CC#N)nc45)C[C@H]3C)cc2nc1[2H] (stereo partly drawn) [Compound A268, 2-(7-((2S,5R)-2,5-dimethyl-4-(1-(quinoxalin-6-yl-2,3-d2)ethyl)piperazin-1-yl)-4-methyl-5-oxo-4,5-dihydro-2H-pyrazolo[4,3-b]pyridin-2-yl)acetonitrile]
DGKζ; DGKζ ADP-Glo assay IC50(nM)
  IC50: 133 nM
DGKα
  IC50: 16.3 µM

## CC[C@H]1CN(C(C)c2ccc3nc(O)cnc3c2)[C@H](CC)CN1c1cc(=O)n(C)c2cn(CC#N)nc12 (single isomer, unassigned) [Compound A282b]
DGKζ; [1]
  IC50: 6960 nM
DGKα
  IC50: 10.5 µM

## CC[C@H]1CN(C(C)c2c(F)cc(F)cc2OC)[C@H](CC)CN1c1cc(=O)n(C)c2cn(CC#N)nc12 (single isomer, unassigned) [Compound A201b]
DGKζ; [1]
  IC50: > 10000 nM
DGKα
  IC50: > 10 µM

## CC[C@H]1CN(C(C)c2ccc3ccccc3c2)[C@H](CC)CN1c1cc(=O)n(C)c2cn(CC#N)nc12 (stereo partly drawn) [Compound A50]
DGKζ; [1]
  IC50: 720 nM
DGKα
  IC50: 0.79 µM

## CC[C@@H]1CN(c2cc(=O)n(C)c3cn(CC#N)nc23)[C@@H](CC)CN1C(=O)c1cccc(C(F)(F)F)c1 [Compound A206, 2-(7-((2S,5R)-2,5-diethyl-4-(3-(trifluoromethyl)benzoyl)piperazin-1-yl)-4-methyl-5-oxo-4,5-dihydro-2H-pyrazolo[4,3-b]pyridin-2-yl)acetonitrile]
DGKζ; [1]
  IC50: 2270 nM
DGKα
  IC50: 2.59 µM

## CC#CCn1cc2c(n1)c(N1C[C@@H](CC)N(C(C)c3cnc4ccccc4n3)C[C@@H]1C)cc(=O)n2C (single isomer, unassigned) [Compound A394b]
DGKζ; [1]
  IC50: 125 nM
DGKα
  IC50: 0.03 µM

## CC[C@H]1CN(C(C)c2ccc(F)cc2C(F)(F)F)[C@H](CC)CN1c1cc(=O)n(C)c2c[nH]nc12 (single isomer, unassigned) [Compound A275a]
DGKζ; [1]
  IC50: 7110 nM
DGKα
  IC50: > 10 µM

## CC#CCn1cc2c(n1)c(N1C[C@@H](CC)N(C(C)c3ccc4c(c3)OC(F)(F)O4)C[C@@H]1C)cc(=O)n2C (single isomer, unassigned) [Compound A392b]
DGKζ; [1]
  IC50: > 10000 nM
DGKα
  IC50: 1.07 µM

## COC(C)c1cc(F)ccc1C(C)N1C[C@H](C)N(c2cc(=O)n(C)c3cn(CC#N)nc23)C[C@H]1C (single isomer, unassigned) [Compound A286a]
DGKζ; [1]
  IC50: 2610 nM
DGKα
  IC50: > 10 µM
